Experimental data published in ChEMBL document CHEMBL1201862, “PubChem BioAssay data set” (2004).
Calls of active or inactive are those of the source.

Assays:
[1] = biological target: T1, High affinity choline transporter 1 (Homo sapiens, UniProt Q9GZV3); assay: CHT inhibitors, dose response, cell-based, 5-point CRC, membrane potential dye (AID 504840); format: functional
T1 sequence (Q9GZV3 whole entry): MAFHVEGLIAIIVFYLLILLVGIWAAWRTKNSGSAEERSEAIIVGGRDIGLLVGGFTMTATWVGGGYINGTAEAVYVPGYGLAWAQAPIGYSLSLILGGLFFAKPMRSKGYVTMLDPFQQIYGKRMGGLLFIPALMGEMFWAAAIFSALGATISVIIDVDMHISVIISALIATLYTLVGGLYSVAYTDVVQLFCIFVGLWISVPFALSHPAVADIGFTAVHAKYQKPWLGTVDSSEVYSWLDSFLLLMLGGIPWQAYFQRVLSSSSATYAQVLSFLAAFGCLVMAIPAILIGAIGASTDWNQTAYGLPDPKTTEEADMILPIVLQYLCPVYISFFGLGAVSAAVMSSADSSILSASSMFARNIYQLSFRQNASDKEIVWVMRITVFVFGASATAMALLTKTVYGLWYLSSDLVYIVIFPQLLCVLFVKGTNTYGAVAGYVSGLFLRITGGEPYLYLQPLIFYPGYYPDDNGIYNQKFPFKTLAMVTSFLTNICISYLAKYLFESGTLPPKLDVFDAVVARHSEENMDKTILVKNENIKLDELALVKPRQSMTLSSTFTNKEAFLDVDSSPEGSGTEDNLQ

[2] = THP-1 cell cytotoxicity, dose response, cytotoxicity control for non-replicating M. tuberculosis project (AID 489025); format: functional
[3] = Vero E6 cell cytotoxicity, dose response, cytotoxicity control for non-replicating M. tuberculosis project, secondary assay (AID 492998); format: functional, VeroE6; settings: Vero C1008
cells = format: functional
[4] = biological target: Heat shock protein HSP 90-alpha (Homo sapiens, UniProt P07900); format: functional, organism-based
Cytochrome P450 3A4 = Cytochrome P450 3A4 (Homo sapiens, UniProt P08684);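 note: CYP3A4 tested as one member of a cytochrome P450 panel screen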
Coagulation factor XII = biological target: T2, Coagulation factor XII (Homo sapiens, UniProt P00748); format: functional;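 note: activated factor XIIa alpha cleaving a fluorogenic AMC peptide substrate; inhibitor potency from loss of enzyme activity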
T2 sequence (P00748 whole entry): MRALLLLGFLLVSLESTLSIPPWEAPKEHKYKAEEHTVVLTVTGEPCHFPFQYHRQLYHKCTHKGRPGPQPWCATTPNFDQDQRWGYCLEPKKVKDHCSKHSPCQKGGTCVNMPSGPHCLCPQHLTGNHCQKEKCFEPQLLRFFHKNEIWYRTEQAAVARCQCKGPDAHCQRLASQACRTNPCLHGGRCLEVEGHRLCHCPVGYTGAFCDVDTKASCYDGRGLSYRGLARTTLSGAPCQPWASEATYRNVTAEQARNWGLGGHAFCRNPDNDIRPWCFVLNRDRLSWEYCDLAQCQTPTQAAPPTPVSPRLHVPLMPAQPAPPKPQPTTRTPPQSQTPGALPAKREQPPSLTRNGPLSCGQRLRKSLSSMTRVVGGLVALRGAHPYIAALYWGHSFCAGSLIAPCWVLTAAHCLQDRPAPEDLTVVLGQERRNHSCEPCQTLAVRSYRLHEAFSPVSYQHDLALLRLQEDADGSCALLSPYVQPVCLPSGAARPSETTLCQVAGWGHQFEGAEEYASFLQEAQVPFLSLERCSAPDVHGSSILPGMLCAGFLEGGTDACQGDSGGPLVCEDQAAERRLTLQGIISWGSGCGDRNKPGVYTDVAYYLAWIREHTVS

Cytochrome P450 2C9 = Cytochrome P450 2C9 (Homo sapiens, UniProt P11712)
Cytochrome P450 2C19 = Cytochrome P450 2C19 (Homo sapiens, UniProt P33261); assay: Cytochrome panel assay with activity outcomes. Panel member name: p450-cyp2c19 Compounds with AC50 equal or less than 10 uM are considered active; format: functional; settings: read-out: AC50
Genome polyprotein = Genome polyprotein (dengue virus type 2, UniProt P29990); assay: Dengue-2 NS5 methyltransferase inhibitors, primary screen, biochemical, confirmation dose response (AID 588689); format: functional
[5] = biological target: Glucose-6-phosphate 1-dehydrogenase (Homo sapiens, UniProt P11413); assay: human G6PD enzyme inhibitors, dose response, selectivity assay for P. falciparum G6PD inhibitor project, biochemical, fluorescence (AID 504792); format: functional
[6] = biological target: Luciferin 4-monooxygenase (Photinus pyralis, UniProt P08659); assay: firefly luciferase enzyme inhibitors, dose response, biochemical, luminescence (AID 1891)
[7] = Luminescence Cell-Based Dose Confirmation HTS to Identify Inhibitors of Platelet Dense Granule Release. [Related pubchem assays: 1663 (Primary HTS), 1678 (Summary of Project)]; format: functional

Chain of Cytochrome P450 3A4 (P08684 whole entry): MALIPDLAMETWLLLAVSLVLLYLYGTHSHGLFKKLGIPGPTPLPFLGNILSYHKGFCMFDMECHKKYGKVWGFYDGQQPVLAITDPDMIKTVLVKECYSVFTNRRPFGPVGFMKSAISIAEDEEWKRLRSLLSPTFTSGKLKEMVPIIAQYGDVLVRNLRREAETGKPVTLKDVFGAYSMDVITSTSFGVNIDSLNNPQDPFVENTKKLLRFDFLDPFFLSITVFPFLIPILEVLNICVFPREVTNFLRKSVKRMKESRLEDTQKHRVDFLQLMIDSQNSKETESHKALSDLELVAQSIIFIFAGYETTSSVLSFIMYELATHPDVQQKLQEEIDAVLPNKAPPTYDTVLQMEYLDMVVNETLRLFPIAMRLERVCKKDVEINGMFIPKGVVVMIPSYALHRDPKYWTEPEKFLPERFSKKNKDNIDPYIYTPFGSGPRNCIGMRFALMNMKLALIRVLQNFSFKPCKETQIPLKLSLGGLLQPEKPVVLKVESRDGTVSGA
Chain of Cytochrome P450 2C19 (P33261 whole entry): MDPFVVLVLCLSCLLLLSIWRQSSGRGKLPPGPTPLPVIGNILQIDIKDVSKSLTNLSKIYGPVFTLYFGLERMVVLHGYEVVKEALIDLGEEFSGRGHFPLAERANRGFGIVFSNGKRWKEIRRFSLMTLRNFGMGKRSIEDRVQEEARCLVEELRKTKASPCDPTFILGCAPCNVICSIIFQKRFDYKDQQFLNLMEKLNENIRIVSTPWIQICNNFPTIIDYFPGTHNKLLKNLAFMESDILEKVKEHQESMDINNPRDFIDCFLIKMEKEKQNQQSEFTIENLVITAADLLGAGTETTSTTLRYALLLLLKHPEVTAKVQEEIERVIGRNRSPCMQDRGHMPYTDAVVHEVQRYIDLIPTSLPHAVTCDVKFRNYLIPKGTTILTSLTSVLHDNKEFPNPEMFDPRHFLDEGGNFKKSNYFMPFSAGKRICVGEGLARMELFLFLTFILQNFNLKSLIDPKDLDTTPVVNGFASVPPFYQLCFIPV
Chain of Glucose-6-phosphate 1-dehydrogenase (P11413 whole entry): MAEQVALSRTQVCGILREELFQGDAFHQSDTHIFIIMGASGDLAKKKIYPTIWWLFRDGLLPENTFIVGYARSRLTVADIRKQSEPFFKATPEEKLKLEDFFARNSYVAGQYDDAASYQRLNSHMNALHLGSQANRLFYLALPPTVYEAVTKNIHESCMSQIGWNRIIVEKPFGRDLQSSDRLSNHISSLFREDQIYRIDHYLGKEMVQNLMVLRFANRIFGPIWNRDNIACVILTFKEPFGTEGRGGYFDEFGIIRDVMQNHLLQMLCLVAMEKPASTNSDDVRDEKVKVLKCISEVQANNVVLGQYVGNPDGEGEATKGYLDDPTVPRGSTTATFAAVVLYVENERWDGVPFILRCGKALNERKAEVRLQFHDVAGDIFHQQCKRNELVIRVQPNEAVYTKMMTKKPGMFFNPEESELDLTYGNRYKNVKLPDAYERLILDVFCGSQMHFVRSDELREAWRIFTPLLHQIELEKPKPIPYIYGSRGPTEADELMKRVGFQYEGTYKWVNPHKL
Chain of Luciferin 4-monooxygenase (P08659 whole entry): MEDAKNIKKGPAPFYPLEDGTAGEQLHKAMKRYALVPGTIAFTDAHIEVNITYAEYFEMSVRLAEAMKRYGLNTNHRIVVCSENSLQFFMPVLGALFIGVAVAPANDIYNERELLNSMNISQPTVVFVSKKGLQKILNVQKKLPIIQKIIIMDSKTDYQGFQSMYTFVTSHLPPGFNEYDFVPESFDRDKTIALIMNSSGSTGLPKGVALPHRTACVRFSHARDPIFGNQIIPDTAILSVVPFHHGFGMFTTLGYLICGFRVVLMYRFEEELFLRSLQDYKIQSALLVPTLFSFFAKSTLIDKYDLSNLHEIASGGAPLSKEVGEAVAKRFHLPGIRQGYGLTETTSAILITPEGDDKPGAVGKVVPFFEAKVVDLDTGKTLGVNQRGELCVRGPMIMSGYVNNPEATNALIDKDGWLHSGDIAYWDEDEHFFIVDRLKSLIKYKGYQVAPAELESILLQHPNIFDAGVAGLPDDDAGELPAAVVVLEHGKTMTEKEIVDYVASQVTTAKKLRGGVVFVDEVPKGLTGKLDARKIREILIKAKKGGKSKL
Chain of Genome polyprotein (P29990 2492-3391 limits assumed): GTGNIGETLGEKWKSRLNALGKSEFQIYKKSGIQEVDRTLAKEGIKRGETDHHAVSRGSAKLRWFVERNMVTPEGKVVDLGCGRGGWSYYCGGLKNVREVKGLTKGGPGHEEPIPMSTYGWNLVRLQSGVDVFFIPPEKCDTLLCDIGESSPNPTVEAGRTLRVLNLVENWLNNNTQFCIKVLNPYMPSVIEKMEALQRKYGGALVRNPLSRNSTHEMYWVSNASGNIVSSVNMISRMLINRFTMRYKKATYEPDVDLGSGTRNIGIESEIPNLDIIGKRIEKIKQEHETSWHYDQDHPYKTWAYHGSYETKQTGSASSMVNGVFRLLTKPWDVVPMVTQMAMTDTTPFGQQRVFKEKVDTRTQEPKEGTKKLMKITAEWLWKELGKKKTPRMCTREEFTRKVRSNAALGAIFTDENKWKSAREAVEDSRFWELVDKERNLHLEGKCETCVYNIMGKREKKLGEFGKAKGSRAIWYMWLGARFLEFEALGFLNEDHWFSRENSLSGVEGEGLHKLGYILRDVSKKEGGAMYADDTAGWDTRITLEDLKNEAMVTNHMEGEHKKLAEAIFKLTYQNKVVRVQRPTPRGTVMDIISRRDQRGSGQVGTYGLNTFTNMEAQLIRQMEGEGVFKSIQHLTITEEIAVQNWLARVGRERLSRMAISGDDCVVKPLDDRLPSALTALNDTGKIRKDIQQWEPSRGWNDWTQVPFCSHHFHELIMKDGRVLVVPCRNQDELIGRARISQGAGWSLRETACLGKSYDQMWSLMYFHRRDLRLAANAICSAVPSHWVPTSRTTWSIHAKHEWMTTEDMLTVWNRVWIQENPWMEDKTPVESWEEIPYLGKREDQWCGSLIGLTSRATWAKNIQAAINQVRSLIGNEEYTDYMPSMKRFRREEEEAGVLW
Chain of Cytochrome P450 2C9 (P11712 whole entry): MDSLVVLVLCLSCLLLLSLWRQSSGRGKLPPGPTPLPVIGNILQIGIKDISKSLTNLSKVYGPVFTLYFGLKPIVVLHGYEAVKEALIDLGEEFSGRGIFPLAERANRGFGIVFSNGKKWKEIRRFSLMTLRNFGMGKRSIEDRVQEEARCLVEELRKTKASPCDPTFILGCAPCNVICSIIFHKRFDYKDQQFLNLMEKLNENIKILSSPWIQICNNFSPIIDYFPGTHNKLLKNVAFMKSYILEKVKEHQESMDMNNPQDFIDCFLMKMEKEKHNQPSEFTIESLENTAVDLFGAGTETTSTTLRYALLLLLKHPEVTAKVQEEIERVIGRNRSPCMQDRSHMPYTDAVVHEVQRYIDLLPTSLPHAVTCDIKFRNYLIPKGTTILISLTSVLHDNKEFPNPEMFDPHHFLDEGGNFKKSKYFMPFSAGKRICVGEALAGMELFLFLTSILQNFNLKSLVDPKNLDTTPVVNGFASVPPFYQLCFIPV

In the case of `C=Cn1cc[n+](CC(=O)c2ccc(Br)cc2)c1`, the IC50 [1] is reported as 15.1 µM (active).
With `O=C(Nc1nnc(-c2ccc(F)cc2)o1)c1cc(Cl)sc1Cl` the CC50 [2] was 24.2 µM (active), the CC50 [3] was 15.3 µM (active) and the IC50 [1] was 14.5 µM (active). The IC50 (cells) was 0.24 µM (active) and the AC50 [4] was 1.99 µM (active).
For `O=C(c1cccc(F)c1)N1CCC2(CC1)CN(c1ccc(-c3ccccc3)cc1)C2`, the AC50 (Cytochrome P450 3A4) was “inconclusive”.
For `CCOC(=O)C1(Cc2cccc(F)c2)CCN(C(=O)Cn2cnnn2)CC1`, the IC50 (Coagulation factor XII) was > 50 µM (inactive).
For `CC(=O)O[C@H]1CC[C@@]2(C)C(=CC[C@@H]3[C@H]2CC[C@]2(C)C(=O)CC[C@H]32)C1`, the AC50 (Cytochrome P450 2C9) was 15.8 µM (inconclusive), the AC50 (Cytochrome P450 3A4) was “inconclusive” and the AC50 (Cytochrome P450 2C19) was 5.01 µM (inconclusive).
For `O=C(O)CCN1C(=O)/C(=C\c2cccc(OCC(=O)Nc3ccc(Cl)cc3)c2)SC1=S`, the IC50 (Genome polyprotein) was 34.9 µM (active).
In the case of `O=C(Nc1nnc(S(=O)(=O)N2CCCC2)s1)c1cccc([N+](=O)[O-])c1`, the IC50 [5] is reported as 56 µM (inactive).
For `CCOC(=O)c1c(C)nc2sc3c(=O)n(-c4ccc(OC)cc4)nnc3c2c1-c1ccc(OC)cc1`, the AC50 (Cytochrome P450 3A4) was “inconclusive”, the EC50 [6] was > 112 µM (not active) and the EC50 [7] was > 112 µM (not active). For the same compound, the AC50 (Cytochrome P450 2C19) was 2.51 µM (inconclusive).
In the case of `CC(C)Cn1c(-c2ccccc2)nc2ccccc2c1=O`, the IC50 (Coagulation factor XII) is reported as > 50 µM (inactive).
